18 compounds from ChEMBL document CHEMBL1131806, “Structure-activity relationships of pyrroloquinazolines as thrombin receptor antagonists” (Bioorg Med Chem Lett, 1999) can be followed below.

Activity calls are given as the source filed them. The rule behind the calls is not given here.

Test [1] has as its target T1, Proteinase-activated receptor 1 (Homo sapiens, UniProt P25116).
T1 sequence (P25116 whole entry): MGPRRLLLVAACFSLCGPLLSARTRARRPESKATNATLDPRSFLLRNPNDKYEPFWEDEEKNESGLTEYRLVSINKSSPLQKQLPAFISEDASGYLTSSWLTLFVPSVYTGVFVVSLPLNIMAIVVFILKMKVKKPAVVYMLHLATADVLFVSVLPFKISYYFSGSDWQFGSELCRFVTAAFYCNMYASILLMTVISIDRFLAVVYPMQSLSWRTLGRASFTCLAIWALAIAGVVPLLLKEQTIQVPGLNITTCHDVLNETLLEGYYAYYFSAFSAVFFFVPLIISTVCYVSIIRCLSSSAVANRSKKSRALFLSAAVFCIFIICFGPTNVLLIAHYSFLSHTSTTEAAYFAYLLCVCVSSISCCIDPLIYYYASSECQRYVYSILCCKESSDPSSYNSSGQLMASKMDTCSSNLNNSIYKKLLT
In words: Inhibitory activity against binding to Thrombin receptor 1 (PAR-1).

Test [2] is filed under the species Homo sapiens. In words: Compound was evaluated for the inhibition of aggregation induced by 300 nM ha-TRAP(high affinity thrombin receptor agonist peptide) at 10 uM concentration; NA = Not active. The class given is functional, organism-based.
The species entered for test [3] is Homo sapiens. The test can be described thus: Compound was evaluated for the inhibition of aggregation induced by 0.1 U/mL thrombin at 10 uM concentration and determined at 2 min; NA = Not active. The class given is functional, organism-based.
The species entered for test [4] is Homo sapiens. The test can be described thus: Compound was evaluated for the inhibition of aggregation induced by 300 nM ha-TRAP(high affinity thrombin receptor agonist peptide). It counts as functional, organism-based.
The species named for test [5] is Homo sapiens. In words: Compound was evaluated for the inhibition of aggregation induced by 0.1 U/mL thrombin and determined at 2 min. It counts as functional, organism-based.
The target of test [6] is T2, Proteinase-activated receptor 1 (Homo sapiens) (UniProt P25116).
T2 sequence (whole entry): T1 sequence (P25116 whole entry)
The test can be described thus: Compound was evaluated for inhibitory activity against binding to Thrombin receptor 1 (PAR-1) at 1 uM concentration.

For test [7], the species on record is Homo sapiens. In words: Compound was evaluated for the inhibition of platelet aggregation induced by 0.1 U/mL thrombin at concentration. of 10 uM; NA = Not active. It counts as functional, organism-based.
For test [8], the species on record is Homo sapiens. The test can be described thus: Compound was evaluated for the inhibition of aggregation induced by 300 nM ha-TRAP(high affinity thrombin receptor agonist peptide) at 10 uM concentration. It counts as functional.

In test [1], `CCOc1ccc(Cn2ccc3c4c(N)nc(N)nc4ccc32)cc1` registered an IC50 of 2630 nM.

As to `CC(C)c1ccc(Cn2ccc3c4c(N)nc(NCCO)nc4ccc32)cc1`, the inhibition entry in the test filed under Homo sapiens [2] and in the test filed under Homo sapiens [3] was “inactive” in each case. Also, the IC50 in test [1] worked out at 4900 nM.

With `CC(C)c1ccc(Cn2ccc3c4c(N)nc(N5CCCCC5)nc4ccc32)cc1`, the 50% inhibitory concentration (IC50) in the test listed under Homo sapiens [4] stood at 600 nM; in test [1], 100 nM. Further, the inhibition entry in the test listed under Homo sapiens [3] is “inactive”.

In test [1], `C=Cc1ccc(Cn2ccc3c4c(N)nc(N)nc4ccc32)cc1` returned an IC50 of 9600 nM.

With `CCNc1nc(N)c2c(ccc3c2ccn3Cc2ccc(C(C)C)cc2)n1`, the results for the half-maximal inhibitory concentration (IC50) (in the test listed under Homo sapiens [4]; in test [1]) were 600 nM and 524 nM, respectively. For the same compound, the inhibition entry in the test listed under Homo sapiens [3] was “inactive”.

Take `CNc1nc(N(C)C)nc2ccc3c(ccn3Cc3ccc(C(C)C)cc3)c12`: in test [1], the IC50 came out at 3200 nM. Besides, in the test filed under Homo sapiens [3], the inhibition result was “inactive”.

On to `CC(C)c1ccc(Cn2ccc3c4c(N)nc(N(C)C5CC5)nc4ccc32)cc1`, for which the values for the IC50 (in the test listed under Homo sapiens [5]; in the test filed under Homo sapiens [4]; in test [1]) were 700 nM, 150 nM and 52 nM, respectively.

`CC(C)c1ccc(Cn2ccc3c4c(N)nc(N(C)C)nc4ccc32)cc1`: the half-inhibitory concentration (IC50) turned out to be 2000 nM in the test filed under Homo sapiens [4] and 100 nM in test [1]. Also, in the test filed under Homo sapiens [3], the inhibition result was “inactive”.

`CC(C)(C)c1ccc(Cn2ccc3c4c(N)nc(N)nc4ccc32)cc1` gave a 50% inhibitory concentration (IC50) in test [1] of 1230 nM.

Consider `CC(C)c1ccc(Cn2ccc3c4c(N)nc(N5CCc6ccccc6C5)nc4ccc32)cc1`, for which the inhibition result (in test [6]; in the test filed under Homo sapiens [3]) was “inactive” in each case.

As for `CC(C)c1ccc(Cn2ccc3c4c(N)nc(N)nc4ccc32)cc1`, the inhibition entry in the test listed under Homo sapiens [7] was “inactive”. Moreover, the IC50 in the test filed under Homo sapiens [4] stood at 3000 nM; in test [1] it was 300 nM.

With `Cc1ccc2cc(Cn3ccc4c5c(N)nc(N)nc5ccc43)ccc2c1`, in test [1], the IC50 is 1750 nM.

In test [1], `CSc1ccc(Cn2ccc3c4c(N)nc(N)nc4ccc32)cc1` yielded a 50% inhibitory concentration (IC50) of 6880 nM. This IC50 is about 3.9-fold higher than that of the compound before.

Consider `CC(C)c1ccc(Cn2ccc3c4c(N(C)C)nc(N(C)C)nc4ccc32)cc1`, for which the Inhibition in the test filed under Homo sapiens [8] is listed as 40%. The IC50 in test [1] came to 1250 nM. The inhibition result in the test filed under Homo sapiens [3] is “inactive”.

In test [1], `CCc1ccc(Cn2ccc3c4c(N)nc(N)nc4ccc32)cc1` showed an IC50 of 4500 nM.

With `CC(C)c1ccc(Cn2ccc3c4c(N)nc(NC5CC5)nc4ccc32)cc1`, the figures for the IC50 (in the test filed under Homo sapiens [5]; in the test filed under Homo sapiens [4]; in test [1]) were 3000 nM, 300 nM and 56 nM, respectively.

Consider `CC(C)c1ccc(Cn2ccc3c4c(N)nc(N5CCNCC5)nc4ccc32)cc1`, for which the inhibition entry in the test listed under Homo sapiens [2] and in the test listed under Homo sapiens [3] was “inactive” throughout. This compound also registered an inhibition in test [6] of 17%.

With `CNc1nc(N)c2c(ccc3c2ccn3Cc2ccc(C(C)C)cc2)n1`, the values for the half-inhibitory concentration (IC50) (in the test listed under Homo sapiens [4]; in test [1]) were 600 nM and 870 nM, respectively. For the same compound, the inhibition result in the test listed under Homo sapiens [3] was “inactive”.

A word on the IC50: it is the concentration that inhibits the measured activity by half. The inhibition is the drop in the measured response relative to a control, in per cent. In general, Inhibition refers to the change of the read-out against control, counted positive when it falls.
